These compounds were tested against T1, Lysine-specific histone demethylase 1A (Homo sapiens, UniProt O60341) (assay: Inhibition of N-terminal truncated human LSD1 (151 to 852 residues) expressed in Escherichia coli after 30 mins using histone H3(1-21)K4(Me1) biotin peptide as substrate by TR-FRET assay).

SMILES | IC50 [µM]
CC(=O)N1CCc2cc(S(=O)(=O)N(CC(=O)N3CCC(N)CC3)c3ccc(C#N)cc3)ccc21 | 4.4
COc1ccc(CN(CC(=O)N2CCC(F)(CN)CC2)c2ccc(C#N)cc2)cc1F | 0.99
Cc1ccc(S(=O)(=O)N(CC(=O)N[C@@H]2CN3CCC2CC3)c2ccc(C#N)cc2)cc1 | 14.2
Cc1ccc(S(=O)(=O)N(CC(=O)N2CCC[C@H](N)C2)c2ccc(C#N)cc2)cc1 | 24.3
Cc1ccc(S(=O)(=O)N(CC(=O)N2CC[C@@H](N)C2)c2ccc(C#N)cc2)cc1 | 16.4
Cc1ccc(S(=O)(=O)N(CC(=O)N2CCC(C)(N)CC2)c2ccc(C#N)cc2)cc1 | 5.2
Cc1ccc(S(=O)(=O)N(CC(=O)N2C[C@@H]3C[C@H]2CN3)c2ccc(C#N)cc2)cc1 | 13.1
Cn1ncc2cc(CN(CC(=O)N3CCC(N)CC3)c3ccc(C#N)cc3)ccc21 | 0.62
N#Cc1ccc(N(CC(=O)N2CCC(CN)CC2)Cc2ccc(C(N)=O)cc2)cc1 | 0.83
Cc1ccc(S(=O)(=O)N(CC(=O)Nc2cccnc2)c2ccc(C#N)cc2)cc1 | > 150
N#Cc1ccc(N(CC(=O)N2CCC(CN)CC2)Cc2ccc(Cl)cc2)cc1 | 0.4
Cc1ccc(S(=O)(=O)N(CC(=O)N2CCC[C@@H](N)C2)c2ccc(C#N)cc2)cc1 | 13.9
Cc1ccc(CN(CC(=O)N2CCC(N)CC2)c2ccc(C#N)cc2)cc1 | 1.3
Cc1ccc(S(=O)(=O)N(CC(=O)N2CC[C@H](N)C2)c2ccc(C#N)cc2)cc1 | 22.7
Cc1ccc(S(=O)(=O)N(CC(=O)N[C@H]2CN3CCC2CC3)c2ccc(C#N)cc2)cc1 | 11.9
CC(=O)N1CCc2cc(S(=O)(=O)N(CC(=O)N3CCC[C@@H](N)C3)c3ccc(C#N)cc3)ccc21 | 5.2
Cc1ccc(CN(CC(=O)N2CCC(CN)CC2)c2ccc(C#N)cc2)cc1 | 0.29

The compounds below were run against T1, Lysine-specific histone demethylase 1A (assay: Binding affinity to LSD1 (unknown origin) by SPR analysis).

SMILES | Kd [µM]
CC(=O)N1CCc2cc(S(=O)(=O)N(CC(=O)N3CCC(N)CC3)c3ccc(C#N)cc3)ccc21 | 1.8
COc1ccc(CN(CC(=O)N2CCC(F)(CN)CC2)c2ccc(C#N)cc2)cc1F | 0.23
Cc1ccc(S(=O)(=O)N(CC(=O)N[C@@H]2CN3CCC2CC3)c2ccc(C#N)cc2)cc1 | 3.5
Cc1ccc(S(=O)(=O)N(CC(=O)N2CCC[C@H](N)C2)c2ccc(C#N)cc2)cc1 | 10.3
Cc1ccc(S(=O)(=O)N(CC(=O)N2CC[C@@H](N)C2)c2ccc(C#N)cc2)cc1 | 3.2
Cc1ccc(S(=O)(=O)N(CC(=O)N2CCC(C)(N)CC2)c2ccc(C#N)cc2)cc1 | 2.5
Cc1ccc(S(=O)(=O)N(CC(=O)N2C[C@@H]3C[C@H]2CN3)c2ccc(C#N)cc2)cc1 | 2.4
Cn1ncc2cc(CN(CC(=O)N3CCC(N)CC3)c3ccc(C#N)cc3)ccc21 | 0.14
N#Cc1ccc(N(CC(=O)N2CCC(CN)CC2)Cc2ccc(C(N)=O)cc2)cc1 | 0.49
Cc1ccc(S(=O)(=O)N(CC(=O)Nc2cccnc2)c2ccc(C#N)cc2)cc1 | 90
N#Cc1ccc(N(CC(=O)N2CCC(CN)CC2)Cc2ccc(Cl)cc2)cc1 | 0.29
Cc1ccc(S(=O)(=O)N(CC(=O)N2CCC[C@@H](N)C2)c2ccc(C#N)cc2)cc1 | 4.5
Cc1ccc(CN(CC(=O)N2CCC(N)CC2)c2ccc(C#N)cc2)cc1 | 0.43
Cc1ccc(S(=O)(=O)N(CC(=O)N2CC[C@H](N)C2)c2ccc(C#N)cc2)cc1 | 4.7
Cc1ccc(S(=O)(=O)N(CC(=O)N[C@H]2CN3CCC2CC3)c2ccc(C#N)cc2)cc1 | 3.6
CC(=O)N1CCc2cc(S(=O)(=O)N(CC(=O)N3CCC[C@@H](N)C3)c3ccc(C#N)cc3)ccc21 | 2.4
CC(=O)Nc1ccc(S(=O)(=O)Nc2ccc(C#N)cc2)cc1 | 9.5
Cc1ccc(CN(CC(=O)N2CCC(CN)CC2)c2ccc(C#N)cc2)cc1 | 0.11

From ChEMBL document CHEMBL4017519, “Development of (4-Cyanophenyl)glycine Derivatives as Reversible Inhibitors of Lysine Specific Demethylase 1” (J Med Chem, 2017)
